How the values were obtained:
[1] = molecular target: T1, PARP (Homo sapiens, UniProt P09874); experiment: PARP ELISA (ELISA-based colorimetric PARP/Apoptosis Assay kit, Trevigen); format: biochemical; details: pIC50=-log10 IC50, IC50 in mol/L; inhibition of PARP catalytic activity
T1 construct: purchased Trevigen 4684-096-K HT (kit); 4684-096-01 (PARP enzyme)
Summary of the method: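 Quenched after 10 min catalysis by aspiration and four PBS/0.1% Triton X-100 washes. Poly(ADP-ribose) detected with mouse anti-PAR monoclonal antibody, goat anti-mouse IgG-HRP and HRP substrate; colorimetric signal proportional to PARP catalytic activity.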

[2] = tested on: Jurkat cell line; experiment: PARP cellular chemopotentiation assay (MTS, with/without TMZ); format: cell-based; details: Chemopotentiation factor: ratio of EC50 values of Jurkat cells co-treated without and with 100 μM TMZ; 96 hours
Procedure: Potentiation Factor (PF50) Determination from PARP Cellular Chemopotentiation Assay
Jurkat cell line was maintained according to the supplier (American Type Culture Collection (Rockville, Md.)). Cells were seeded in 96-well tissue culture microplates at 10,000 cells per well and cultured for 24 hours prior to addition of compounds, TMZ (Temozolomide) or DMSO (dimethylsulfoxide) vehicle. After 96 hours of treatment, the conversion of MTS ([3-(4,5-dimethylthiazol-2-yl)-5-(3-carboxymethoxyphenyl)-2-(4-sulfophenyl)-2H-tetrazolium, inner salt], Promega, Madison, Wis.) by metabolically active cells was determined through measuring the OD490 nm with a Spectramax microplate reader (Molecular Devices, San Diego, Calif.). To generate concentration-response curves, cells were treated in duplicate with a range of serial compound dilutions (final DMSO concentration was 0.5%) in the absence or presence of 100 μM TMZ chemoreagent. The percentage of viable cells per well was calculated by correction for background and normalizing against DMSO-treated cells. EC50 values for inhibition of cell viability were calculated using XLfit4 MicroSoft Excel curve-fitting software. Chemopotentiation factor PF50 was calculated as the ratio of EC50 values of cells co-treated without and with TMZ, respectively.

T1 sequence (P09874 whole entry): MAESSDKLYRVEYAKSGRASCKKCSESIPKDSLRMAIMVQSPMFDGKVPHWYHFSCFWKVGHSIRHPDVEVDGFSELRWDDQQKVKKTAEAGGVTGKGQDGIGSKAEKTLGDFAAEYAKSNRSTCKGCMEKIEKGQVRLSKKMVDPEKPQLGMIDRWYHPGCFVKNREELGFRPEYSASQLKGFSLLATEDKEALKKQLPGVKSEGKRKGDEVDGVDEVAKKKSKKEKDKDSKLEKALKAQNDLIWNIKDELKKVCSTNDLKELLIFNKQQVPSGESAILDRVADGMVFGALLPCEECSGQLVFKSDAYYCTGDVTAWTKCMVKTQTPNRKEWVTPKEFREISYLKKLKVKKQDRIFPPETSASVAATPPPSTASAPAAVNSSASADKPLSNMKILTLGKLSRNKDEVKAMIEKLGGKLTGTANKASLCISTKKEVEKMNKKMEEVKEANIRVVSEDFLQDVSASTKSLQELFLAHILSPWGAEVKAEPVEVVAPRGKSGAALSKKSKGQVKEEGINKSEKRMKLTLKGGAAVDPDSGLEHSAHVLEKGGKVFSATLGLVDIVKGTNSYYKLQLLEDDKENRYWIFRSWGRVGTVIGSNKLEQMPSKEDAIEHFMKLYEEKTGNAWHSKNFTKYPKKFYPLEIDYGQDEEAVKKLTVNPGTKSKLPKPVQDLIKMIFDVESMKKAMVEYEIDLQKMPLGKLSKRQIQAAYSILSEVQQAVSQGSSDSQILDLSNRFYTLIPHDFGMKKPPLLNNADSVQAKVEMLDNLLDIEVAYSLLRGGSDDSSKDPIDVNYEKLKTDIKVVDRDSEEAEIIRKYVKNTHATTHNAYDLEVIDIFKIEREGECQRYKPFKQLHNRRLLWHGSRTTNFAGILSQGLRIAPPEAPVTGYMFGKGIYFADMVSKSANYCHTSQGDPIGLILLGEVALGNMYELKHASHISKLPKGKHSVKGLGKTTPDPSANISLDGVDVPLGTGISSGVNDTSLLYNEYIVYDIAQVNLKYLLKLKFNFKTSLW

Row | SMILES | IC50 [1] | PF50 [2]
1 | CC1Oc2cc(F)c(CN3CC=C(c4ccc(Cl)cc4)CC3)cc2NC1=O (centres unmarked) [Compound 331, 6-((4-(4-Chlorophenyl)-5,6-dihydropyridin-1(2H)-yl)methyl)-7-fluoro-2-methyl-2H-benzo[b][1,4]oxazin-3(4H)-one] | > 200 nM | 1.3
2 | CNC(=O)c1ccc(N2CCN(Cc3cc4c(cc3F)OC(C)C(=O)N4)CC2)cc1 (centres unmarked) [Compound 335, 4-(4-((7-Fluoro-2-methyl-3-oxo-3,4-dihydro-2H-benzo[b][1,4]oxazin-6-yl)methyl)piperazin-1-yl)-N-methylbenzamide] | 63.1 nM | 0.3
3 | CCNC(=O)c1ccc(N2CCN(Cc3cc4c(cc3F)OC(C)C(=O)N4)CC2)cc1 (centres unmarked) [Compound 336, N-Ethyl-4-(4-((7-fluoro-2-methyl-3-oxo-3,4-dihydro-2H-benzo[b][1,4]oxazin-6-yl)methyl)piperazin-1-yl)benzamide] | 100 nM | 2.1
4 | CC1Oc2cc(F)c(CN3CCN(c4ccc(C#N)cc4)CC3)cc2NC1=O (centres unmarked) [Compound 339, 4-(4-((7-Fluoro-2-methyl-3-oxo-3,4-dihydro-2H-benzo[b][1,4]oxazin-6-yl)methyl)piperazin-1-yl)benzonitrile] | 79.4 nM | 1.0
5 | CC1Oc2cc(F)c(CN3CCN(c4ccc(C#N)cn4)CC3)cc2NC1=O (centres unmarked) [Compound 340, 6-(4-((7-Fluoro-2-methyl-3-oxo-3,4-dihydro-2H-benzo[b][1,4]oxazin-6-yl)methyl)piperazin-1-yl)nicotinonitrile] | 63.1 nM | 0.9
6 | CC1Oc2ccc(Cn3cc4ccccc4n3)cc2NC1=O (centres unmarked) [Compound 344, 6-((2H-Indazol-2-yl)methyl)-2-methyl-2H-benzo[b][1,4]oxazin-3(4H)-one] | > 200 nM | 1.3
7 | CC1Oc2ccc(Cn3ncc4ccccc43)cc2NC1=O (centres unmarked) [Compound 345, 6-((1H-Indazol-1-yl)methyl)-2-methyl-2H-benzo[b][1,4]oxazin-3(4H)-one] | 79.4 nM | 1.2
8 | CCNC(=O)c1ccc(N2CCN(Cc3cc4c(c(OC)c3)OC(C)C(=O)N4)CC2)c(F)c1 (centres unmarked) [Compound 360, N-Ethyl-3-fluoro-4-(4-((8-methoxy-2-methyl-3-oxo-3,4-dihydro-2H-benzo[b][1,4]oxazin-6-yl)methyl)piperazin-1-yl)benzamide] | 39.8 nM | 3.1
9 | CCNC(=O)c1ccc(N2CCN(Cc3cc4c(c(OC)c3)OC(C)C(=O)N4)CC2)c(Cl)c1 (centres unmarked) [Compound 361, 3-Chloro-N-ethyl-4-(4-((8-methoxy-2-methyl-3-oxo-3,4-dihydro-2H-benzo[b][1,4]oxazin-6-yl)methyl)piperazin-1-yl)benzamide] | 25.1 nM | >3500
10 | CNC(=O)c1ccc(N2CCN(Cc3cc4c(c(OC)c3)OC(C)C(=O)N4)CC2)c(C)c1 (centres unmarked) [Compound 362, 4-(4-((8-Methoxy-2-methyl-3-oxo-3,4-dihydro-2H-benzo[b][1,4]oxazin-6-yl)methyl)piperazin-1-yl)-N,3-dimethylbenzamide] | 31.6 nM | >1700

Now from value to compound, other results behind:

Row | IC50 [1] | SMILES | PF50 [2]
11 | 79.4 nM | CC1Oc2cc(F)c(CN3CCN(c4ccc(C(=O)NC5CC5)cc4)CC3)cc2NC1=O (centres unmarked) [Compound 338, N-Cyclopropyl-4-(4-((7-fluoro-2-methyl-3-oxo-3,4-dihydro-2H-benzo[b][1,4]oxazin-6-yl)methyl)piperazin-1-yl)benzamide] | 0.4
12 | 100 nM | CCNC(=O)c1ccc(N2CCN(Cc3cc4c(c(C5CC5)c3)OC(C)C(=O)N4)CC2)cc1 (centres unmarked) [Compound 346, 4-(4-((8-Cyclopropyl-2-methyl-3-oxo-3,4-dihydro-2H-benzo[b][1,4]oxazin-6-yl)methyl)piperazin-1-yl)-N-ethylbenzamide] | 8.6
13 | 100 nM | CNC(=O)c1ccc(N2CCN(Cc3cc4c(c(C5CC5)c3)OC(C)C(=O)N4)CC2)cc1 (centres unmarked) [Compound 347, 4-(4-((8-Cyclopropyl-2-methyl-3-oxo-3,4-dihydro-2H-benzo[b][1,4]oxazin-6-yl)methyl)piperazin-1-yl)-N-methylbenzamide] | 10.1
14 | 251 nM | CC1Oc2c(cc(CN3CCN(c4ccc(C(=O)NC5CC5)cc4)CC3)cc2C2CC2)NC1=O (centres unmarked) [Compound 348, N-Cyclopropyl-4-(4-((8-cyclopropyl-2-methyl-3-oxo-3,4-dihydro-2H-benzo[b][1,4]oxazin-6-yl)methyl)piperazin-1-yl)benzamide] | >5
15 | > 200 nM | CNC(=O)c1ccc(N2CCN(Cc3cc4c(c(-c5ccccc5)c3)OC(C)C(=O)N4)CC2)cc1 (centres unmarked) [Compound 350, N-Methyl-4-(4-((2-methyl-3-oxo-8-phenyl-3,4-dihydro-2H-benzo[b][1,4]oxazin-6-yl)methyl)piperazin-1-yl)benzamide] | 2.1
16 | > 200 nM | CC1Oc2c(cc(CN3CCN(c4ccc(C(=O)NC5CC5)cc4)CC3)cc2-c2ccccc2)NC1=O (centres unmarked) [Compound 351, N-Cyclopropyl-4-(4-((2-methyl-3-oxo-8-phenyl-3,4-dihydro-2H-benzo[b][1,4]oxazin-6-yl)methyl)piperazin-1-yl)benzamide] | 1.0
17 | 79.4 nM | CC1Oc2c(cc(CN3CCN(c4ccc(C#N)cc4)CC3)cc2C2CC2)NC1=O (centres unmarked) [Compound 352, 4-(4-((8-Cyclopropyl-2-methyl-3-oxo-3,4-dihydro-2H-benzo[b][1,4]oxazin-6-yl)methyl)piperazin-1-yl)benzonitrile] | 6.3
18 | > 200 nM | CNC(=O)c1ccc(N2CCN(Cc3cc(Cc4ccccc4)c4c(c3)NC(=O)C(C)O4)CC2)cc1 (centres unmarked) [Compound 353, 4-(4-((8-Benzyl-2-methyl-3-oxo-3,4-dihydro-2H-benzo[b][1,4]oxazin-6-yl)methyl)piperazin-1-yl)-N-methylbenzamide] | 1.3
19 | > 200 nM | CC1Oc2c(Cc3ccccc3)cc(CN3CCN(c4ccc(C(=O)NC5CC5)cc4)CC3)cc2NC1=O (centres unmarked) [Compound 354, 4-(4-((8-Benzyl-2-methyl-3-oxo-3,4-dihydro-2H-benzo[b][1,4]oxazin-6-yl)methyl)piperazin-1-yl)-N-cyclopropylbenzamide] | 1.0
20 | > 200 nM | CCNC(=O)c1ccc(N2CCN(Cc3cc(Cc4ccccc4)c4c(c3)NC(=O)C(C)O4)CC2)cc1 (centres unmarked) [Compound 355, 4-(4-((8-Benzyl-2-methyl-3-oxo-3,4-dihydro-2H-benzo[b][1,4]oxazin-6-yl)methyl)piperazin-1-yl)-N-ethylbenzamide] | 1.3
21 | > 200 nM | CCCc1cc(CN2CCN(c3ccc(C(=O)NC)cc3)CC2)cc2c1OC(C)C(=O)N2 (centres unmarked) [Compound 358, N-Methyl-4-(4-((2-methyl-3-oxo-8-propyl-3,4-dihydro-2H-benzo[b][1,4]oxazin-6-yl)methyl)piperazin-1-yl)benzamide] | >3.0
22 | 15.8 nM | CCNC(=O)c1ccc(N2CCN(Cc3cc(O)c4c(c3)NC(=O)C(C)O4)CC2)cc1 (centres unmarked) [Compound 359, N-Ethyl-4-(4-((8-hydroxy-2-methyl-3-oxo-3,4-dihydro-2H-benzo[b][1,4]oxazin-6-yl)methyl)piperazin-1-yl)benzamide] | >6.0

Source: patent US8669249B2, “Poly (ADP-ribose) polymerase (PARP) inhibitors” (Takeda Pharmaceutical Company Limited, priority 2009, dated 2014)
